This is an account of results in ChEMBL document CHEMBL1201862, “PubChem BioAssay data set” (2004).

The target of one experiment is T1, Caspase-6 (Homo sapiens, UniProt P55212).
T1 sequence (P55212 whole entry): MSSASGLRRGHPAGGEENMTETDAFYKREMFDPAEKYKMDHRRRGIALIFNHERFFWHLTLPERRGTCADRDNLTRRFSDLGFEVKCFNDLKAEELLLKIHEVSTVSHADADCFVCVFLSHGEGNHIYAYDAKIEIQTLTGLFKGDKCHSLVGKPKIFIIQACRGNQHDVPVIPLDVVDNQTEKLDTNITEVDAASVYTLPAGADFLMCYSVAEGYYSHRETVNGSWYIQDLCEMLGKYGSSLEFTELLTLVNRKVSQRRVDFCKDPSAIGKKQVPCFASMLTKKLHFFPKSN
The experiment in a line: human caspase-6 inhibitors, dose response, biochemical, VEID-R110 fluorescence, cherry-pick (AID 720632).

For experiment [1], the target named is T2, Histone-lysine N-methyltransferase NSD2 (Homo sapiens, UniProt O96028).
T2 sequence (O96028 whole entry): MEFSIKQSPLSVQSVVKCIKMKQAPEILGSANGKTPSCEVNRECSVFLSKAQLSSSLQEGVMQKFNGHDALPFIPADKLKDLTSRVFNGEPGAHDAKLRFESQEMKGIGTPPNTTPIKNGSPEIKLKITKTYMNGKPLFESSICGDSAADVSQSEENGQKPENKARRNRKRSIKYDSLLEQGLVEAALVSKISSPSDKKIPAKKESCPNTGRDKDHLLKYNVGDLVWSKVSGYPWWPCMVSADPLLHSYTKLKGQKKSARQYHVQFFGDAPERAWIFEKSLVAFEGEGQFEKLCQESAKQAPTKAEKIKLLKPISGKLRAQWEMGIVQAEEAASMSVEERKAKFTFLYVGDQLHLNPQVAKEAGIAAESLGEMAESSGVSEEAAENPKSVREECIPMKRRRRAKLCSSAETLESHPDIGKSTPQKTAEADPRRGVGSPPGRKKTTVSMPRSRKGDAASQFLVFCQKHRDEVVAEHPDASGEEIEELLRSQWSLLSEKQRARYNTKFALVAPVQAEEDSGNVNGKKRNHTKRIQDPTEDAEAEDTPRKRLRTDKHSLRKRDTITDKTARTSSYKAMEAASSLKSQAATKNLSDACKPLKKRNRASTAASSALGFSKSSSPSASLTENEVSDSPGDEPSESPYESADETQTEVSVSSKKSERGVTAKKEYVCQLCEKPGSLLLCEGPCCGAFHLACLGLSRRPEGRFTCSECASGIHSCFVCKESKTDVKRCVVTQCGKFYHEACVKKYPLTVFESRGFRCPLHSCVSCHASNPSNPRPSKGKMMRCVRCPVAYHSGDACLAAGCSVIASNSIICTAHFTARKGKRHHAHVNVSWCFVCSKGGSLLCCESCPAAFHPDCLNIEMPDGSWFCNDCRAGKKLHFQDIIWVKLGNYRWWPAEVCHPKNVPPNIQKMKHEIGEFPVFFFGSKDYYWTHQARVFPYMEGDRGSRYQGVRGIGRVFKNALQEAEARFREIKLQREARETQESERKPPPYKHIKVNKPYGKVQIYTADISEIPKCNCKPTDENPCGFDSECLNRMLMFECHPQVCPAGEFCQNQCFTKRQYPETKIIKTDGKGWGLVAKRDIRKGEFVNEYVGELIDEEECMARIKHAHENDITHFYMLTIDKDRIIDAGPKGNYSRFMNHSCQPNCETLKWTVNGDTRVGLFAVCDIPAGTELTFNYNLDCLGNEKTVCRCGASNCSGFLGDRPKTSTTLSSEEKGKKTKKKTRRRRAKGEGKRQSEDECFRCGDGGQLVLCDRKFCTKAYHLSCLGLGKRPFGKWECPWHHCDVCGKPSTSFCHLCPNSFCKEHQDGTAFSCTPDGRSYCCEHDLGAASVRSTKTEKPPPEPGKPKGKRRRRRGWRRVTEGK
In kind it is biochemical.

The target of experiment [2] is T3, Heat shock factor protein 1 (Mus musculus, UniProt P38532).
T3 sequence (P38532 whole entry): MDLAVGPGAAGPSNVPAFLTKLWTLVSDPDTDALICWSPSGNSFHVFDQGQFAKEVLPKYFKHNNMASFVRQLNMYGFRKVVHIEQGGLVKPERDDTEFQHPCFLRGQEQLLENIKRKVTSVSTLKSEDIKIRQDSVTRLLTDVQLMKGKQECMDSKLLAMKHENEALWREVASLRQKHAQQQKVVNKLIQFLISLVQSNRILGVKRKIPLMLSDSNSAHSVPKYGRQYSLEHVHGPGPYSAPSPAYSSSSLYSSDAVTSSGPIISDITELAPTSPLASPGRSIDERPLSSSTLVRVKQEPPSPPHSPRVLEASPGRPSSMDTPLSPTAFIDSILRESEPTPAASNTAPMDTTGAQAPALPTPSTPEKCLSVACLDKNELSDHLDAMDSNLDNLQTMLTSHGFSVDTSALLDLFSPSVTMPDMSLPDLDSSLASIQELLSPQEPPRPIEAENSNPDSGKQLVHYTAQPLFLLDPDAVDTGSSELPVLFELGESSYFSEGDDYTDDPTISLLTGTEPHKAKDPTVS
The experiment in a line: HSF1 potentiators in luciferase reporter cells, confirmation, cell-based, NIH3T3, luminescence, dose retest (AID 435004).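 Also: stress induced by proteasome inhibitor MG132 added 30 min after compound; luciferase reporter driven by HSF1 response element in NIH3T3 cells; actives raise luminescence as potentiators of the MG132 stress response.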 In kind it is functional.

Experiment [3] addresses T4, Methionyl-tRNA synthetase, putative (Trypanosoma brucei brucei, UniProt Q38C91).
T4 sequence (Q38C91 whole entry): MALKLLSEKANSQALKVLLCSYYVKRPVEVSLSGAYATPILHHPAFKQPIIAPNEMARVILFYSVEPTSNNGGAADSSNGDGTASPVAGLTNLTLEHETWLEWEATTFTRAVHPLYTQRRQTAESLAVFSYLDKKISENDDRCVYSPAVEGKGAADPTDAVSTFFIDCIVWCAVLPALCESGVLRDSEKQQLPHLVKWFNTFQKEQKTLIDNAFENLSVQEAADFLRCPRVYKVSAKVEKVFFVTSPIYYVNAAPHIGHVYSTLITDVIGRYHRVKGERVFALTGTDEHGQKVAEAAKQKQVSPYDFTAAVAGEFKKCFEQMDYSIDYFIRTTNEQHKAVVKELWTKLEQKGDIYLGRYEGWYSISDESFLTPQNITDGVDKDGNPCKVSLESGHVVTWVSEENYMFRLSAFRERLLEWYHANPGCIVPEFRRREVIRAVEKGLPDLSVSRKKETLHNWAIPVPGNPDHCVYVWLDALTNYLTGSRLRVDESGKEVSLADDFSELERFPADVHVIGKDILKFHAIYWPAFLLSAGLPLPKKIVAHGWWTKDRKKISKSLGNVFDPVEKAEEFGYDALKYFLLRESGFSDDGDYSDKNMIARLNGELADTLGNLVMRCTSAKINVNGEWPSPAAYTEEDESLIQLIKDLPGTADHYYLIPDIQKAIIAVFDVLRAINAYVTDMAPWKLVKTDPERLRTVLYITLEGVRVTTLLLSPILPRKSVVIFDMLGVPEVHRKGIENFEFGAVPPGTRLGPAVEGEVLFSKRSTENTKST
The class given is functional, Trypanosoma brucei brucei strain 927/4 GUTat10.1.

Experiment [4] in a line: Counterscreen for inhibitors of Trypanosoma brucei methionyl tRNA synthetase (MetRS): Luminescence-based cell-based high throughput dose response assay to identify compounds that are cytotoxic to Jurkat human T lymphocyte cells. In kind it is functional. A general note: The purpose of a counterscreen is to sort out artefacts and off-target activity.
The target in experiment [5] is T4, Methionyl-tRNA synthetase, putative. In kind it is functional, Trypanosoma brucei brucei strain 927/4 GUTat10.1. This is another data set of the same source.
For experiment [6], the target named is T5, Short transient receptor potential channel 4 (Mus musculus, UniProt Q9QUQ5).
T5 sequence (Q9QUQ5 whole entry): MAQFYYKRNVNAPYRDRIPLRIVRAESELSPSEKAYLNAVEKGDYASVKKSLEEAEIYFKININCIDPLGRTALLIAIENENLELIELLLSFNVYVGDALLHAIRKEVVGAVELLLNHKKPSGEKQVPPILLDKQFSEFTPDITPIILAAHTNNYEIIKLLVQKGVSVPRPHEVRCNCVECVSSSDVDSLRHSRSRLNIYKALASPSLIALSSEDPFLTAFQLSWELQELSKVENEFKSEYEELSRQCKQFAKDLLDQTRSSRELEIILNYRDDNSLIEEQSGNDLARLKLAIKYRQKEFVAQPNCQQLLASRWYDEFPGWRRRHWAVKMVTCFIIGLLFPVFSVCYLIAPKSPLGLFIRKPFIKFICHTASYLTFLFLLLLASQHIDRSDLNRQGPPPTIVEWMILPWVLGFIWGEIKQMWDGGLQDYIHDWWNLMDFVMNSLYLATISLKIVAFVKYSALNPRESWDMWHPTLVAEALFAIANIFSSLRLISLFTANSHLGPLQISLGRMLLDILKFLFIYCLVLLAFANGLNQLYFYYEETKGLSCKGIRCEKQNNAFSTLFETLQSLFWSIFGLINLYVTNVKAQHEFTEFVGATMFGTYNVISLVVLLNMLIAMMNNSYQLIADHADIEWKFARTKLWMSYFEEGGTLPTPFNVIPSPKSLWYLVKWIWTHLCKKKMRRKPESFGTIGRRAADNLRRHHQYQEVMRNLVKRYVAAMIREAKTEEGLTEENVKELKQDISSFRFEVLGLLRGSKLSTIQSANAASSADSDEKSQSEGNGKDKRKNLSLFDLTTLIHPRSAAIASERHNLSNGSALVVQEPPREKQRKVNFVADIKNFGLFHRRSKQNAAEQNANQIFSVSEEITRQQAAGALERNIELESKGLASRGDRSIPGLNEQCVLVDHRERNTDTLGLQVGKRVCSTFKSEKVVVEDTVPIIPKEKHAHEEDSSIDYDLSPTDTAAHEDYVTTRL
Put plainly: mouse TRPC4 channel inhibitors, dose response, cell-based, HEK293 TRPC4/mu-opioid, Fluo-4 calcium (AID 434942).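 Also: potency of inhibitors blocking the TRPC4 calcium response.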 The class given is functional.

Experiment [7] has as its target T6, DNA repair protein RAD52 homolog (Homo sapiens, UniProt P43351).
T6 sequence (P43351 whole entry): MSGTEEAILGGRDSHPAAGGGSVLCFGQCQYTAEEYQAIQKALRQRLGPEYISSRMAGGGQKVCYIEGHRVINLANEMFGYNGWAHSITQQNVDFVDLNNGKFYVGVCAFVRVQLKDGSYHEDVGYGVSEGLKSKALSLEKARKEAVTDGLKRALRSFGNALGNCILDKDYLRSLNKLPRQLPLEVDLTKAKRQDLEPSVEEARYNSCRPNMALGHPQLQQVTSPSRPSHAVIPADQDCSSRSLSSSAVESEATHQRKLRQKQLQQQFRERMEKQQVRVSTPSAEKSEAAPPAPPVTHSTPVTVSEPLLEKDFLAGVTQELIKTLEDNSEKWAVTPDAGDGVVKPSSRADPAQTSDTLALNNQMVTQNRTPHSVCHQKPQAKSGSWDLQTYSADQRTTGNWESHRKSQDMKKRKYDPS
The class given is functional, biochemical.

For the next experiment, the target named is T7, Cysteine protease ATG4B (Homo sapiens, UniProt Q9Y4P1).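 Also: Fluorescence-based dose-response confirmation assay measuring inhibition of ATG4B activity.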
T7 sequence (Q9Y4P1 whole entry): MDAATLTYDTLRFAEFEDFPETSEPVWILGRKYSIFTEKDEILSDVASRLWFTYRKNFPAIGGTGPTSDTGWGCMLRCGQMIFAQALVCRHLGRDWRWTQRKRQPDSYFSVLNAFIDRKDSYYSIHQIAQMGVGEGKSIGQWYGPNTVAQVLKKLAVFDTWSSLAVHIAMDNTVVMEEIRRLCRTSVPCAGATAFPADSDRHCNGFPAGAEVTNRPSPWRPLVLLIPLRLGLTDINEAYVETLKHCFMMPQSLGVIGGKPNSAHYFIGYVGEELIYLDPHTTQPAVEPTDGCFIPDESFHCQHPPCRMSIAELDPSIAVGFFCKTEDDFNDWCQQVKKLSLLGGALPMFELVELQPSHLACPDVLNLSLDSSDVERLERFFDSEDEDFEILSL
The class given is functional.

Another experiment has as its target Phospholipase A2 (Homo sapiens, UniProt P04054). In kind it is functional.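 Also: confirmatory dose-response counterscreen on phospholipase A2, testing hits that came from an ultra-high-throughput screen for ATG4B inhibitors.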
Another experiment relates to Vero. The experiment in a line: cells. The class given is functional. The following applies: Chlorocebus sabaeus.
The target of experiment [8] is 26S proteasome non-ATPase regulatory subunit 14 (Homo sapiens, UniProt O00487). The experiment in a line: inhibition of proteasome subunit RPN11 – biochemical, fluorescence polarization, uHTS hits, confirmation (AID 602368). In kind it is functional.
Experiment [9] addresses 72 kDa type IV collagenase (Homo sapiens, UniProt P08253). The experiment in a line: Dose Response validation of uHTS RPN11 inhibitor hits using a MMP-2 Fluorescence assay. The class given is functional.
The target of another experiment is Prothrombin (Bos taurus, UniProt P00735). Put plainly: thrombin inhibition, dose response, biochemical, fluorescence polarization, uHTS hits (AID 602369). In kind it is functional.

Active and inactive are the calls of the source.

Phospholipase A2, sequence (P04054 whole entry): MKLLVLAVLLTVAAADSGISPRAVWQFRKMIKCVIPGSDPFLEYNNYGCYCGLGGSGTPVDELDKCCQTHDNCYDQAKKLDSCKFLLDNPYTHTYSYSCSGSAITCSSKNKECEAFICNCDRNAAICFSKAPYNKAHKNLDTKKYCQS
26S proteasome non-ATPase regulatory subunit 14, sequence (O00487 whole entry): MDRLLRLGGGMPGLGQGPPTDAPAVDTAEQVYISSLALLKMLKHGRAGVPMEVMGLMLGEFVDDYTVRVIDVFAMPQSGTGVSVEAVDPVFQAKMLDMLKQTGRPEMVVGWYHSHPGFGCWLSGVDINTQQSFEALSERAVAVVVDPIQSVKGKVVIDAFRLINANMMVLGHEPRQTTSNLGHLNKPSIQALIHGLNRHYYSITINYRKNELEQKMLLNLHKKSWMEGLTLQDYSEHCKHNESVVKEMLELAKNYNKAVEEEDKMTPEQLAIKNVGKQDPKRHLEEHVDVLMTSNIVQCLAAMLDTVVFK
72 kDa type IV collagenase, sequence (P08253 whole entry): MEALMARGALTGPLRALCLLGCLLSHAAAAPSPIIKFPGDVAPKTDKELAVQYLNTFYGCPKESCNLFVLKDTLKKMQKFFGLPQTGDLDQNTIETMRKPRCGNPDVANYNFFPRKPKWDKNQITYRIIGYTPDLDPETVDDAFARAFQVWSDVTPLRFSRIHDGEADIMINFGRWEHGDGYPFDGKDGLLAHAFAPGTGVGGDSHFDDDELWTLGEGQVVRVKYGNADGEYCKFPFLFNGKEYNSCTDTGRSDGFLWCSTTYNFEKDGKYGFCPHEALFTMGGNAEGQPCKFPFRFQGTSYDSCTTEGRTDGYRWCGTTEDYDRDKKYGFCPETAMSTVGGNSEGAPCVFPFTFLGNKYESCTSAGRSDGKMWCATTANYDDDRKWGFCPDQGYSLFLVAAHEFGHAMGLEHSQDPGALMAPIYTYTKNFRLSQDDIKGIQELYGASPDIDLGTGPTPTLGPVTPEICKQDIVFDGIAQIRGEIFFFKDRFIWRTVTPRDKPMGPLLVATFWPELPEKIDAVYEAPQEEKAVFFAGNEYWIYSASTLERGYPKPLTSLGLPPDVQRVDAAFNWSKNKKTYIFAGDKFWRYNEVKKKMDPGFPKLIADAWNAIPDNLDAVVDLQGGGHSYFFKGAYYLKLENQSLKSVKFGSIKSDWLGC

`Cc1cc(/C=C\c2nc(O)c([N+](=O)[O-])c(O)n2)c(C)n1-c1ccccc1`: the AC50 – broadly, the midpoint of the concentration-response curve, whichever way the signal moves – at Caspase-6 is 19.2 µM (active); in experiment [1], > 20 µM (inactive).
As for `CCOC(=O)c1sc(NC(=O)Nc2ccccc2)cc1C`, the EC50 (in general, the midpoint of the concentration-response curve) in experiment [2] was > 260 µM (inconclusive). In addition, the IC50 (in general, the midpoint of a concentration-inhibition curve) in [3] was 4.39 µM (active); in [4], 45 µM (inactive); in [5], 43.9 µM (inactive).
For `CCc1ccc2nc(NC(=N)N)nc(C)c2c1`, in [6], the EC50 is 15 µM (active). Besides, in [7], the AC50 is 16.8 µM (active).
As to `CCCCCCCCCCCCCCC(O)C[N+](C)(CCO)CCO` (stereo unspecified), the IC50 at Cysteine protease ATG4B is 8.23 µM (active); on Phospholipase A2 it was 7.95 µM (active); in experiment [8], 25.3 µM (active); in [9], 85 µM (active); at Prothrombin, 50 µM (active). Further, the CC50 (commonly the concentration at which the toxic effect on the cells reaches its halfway point) in the experiment with Vero is 13.1 µM (active). Moreover, in experiment [7], the AC50 is 8.88 µM (active).
For the molecule `CCOc1ccccc1NS(=O)(=O)c1c(C)[nH]c(C)c1C(=O)N1CCCCC1`, the figures for the IC50 in [3], in experiment [4] and in [5] were 26.1 µM (inactive), 83.3 µM (inactive) and 11.2 µM (inactive), respectively.
Taken in the same sequence, the figures for `O=C(NCc1cc(Cl)cc(Cl)c1)c1csc(COCCO)n1` were 12.2 µM (inactive), 83.3 µM (inactive) and 5.4 µM (active).
